Measurements as given in patent US20120214862A1, “MODULATION OF FACTOR 7 EXPRESSION” (ISIS Pharmaceuticals, Inc., priority 2009, published 2012).
In the oligonucleotide strings, read from the 5' end, every base follows the letter of its sugar. An asterisk marks phosphorothioate; unmarked linkages are phosphodiester. Other units and linkages are bracketed, terminal groups are in braces. A string of capitals states the bases alone. e = 2'-O-(2-methoxyethyl) (MOE); [5mC] = 5-methylcytosine; d = 2'-deoxy (DNA)

Tested on: human Factor 7 mRNA
Assay: Antisense inhibition of human Factor 7 mRNA in HepB3 cells, lipofectin, 50 nM, real-time RT-PCR
Assay type: cell-based
Settings: HepB3 cells, lipofectin, 50 nM antisense oligonucleotide, approximately 24 hours, primer probe set RTS 2927, relative to untreated control
Outline: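 Percent inhibition of Factor 7 mRNA, relative to untreated control, comes from real-time RT-PCR with RIBOGREEN normalization, using primer probe set RTS 2927 in some runs. RNA was taken roughly 24 h after lipofectin delivery of 50 nM oligonucleotide into HepB3 cells.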

| Substance | % Inhibition of human Factor 7 mRNA levels [%] |
| --- | --- |
| 416426 (antisense eA*eG*e[5mC]*e[5mC]*e[5mC]*dA*dA*dG*d[5mC]*dA*dG*dA*dA*dG*dG*e[5mC]*eA*eG*eA*eG) [compound 416426] | 34 |
| 416427 (antisense e[5mC]*e[5mC]*e[5mC]*eT*eG*dA*dA*dG*d[5mC]*d[5mC]*d[5mC]*dA*dA*dG*d[5mC]*eA*eG*eA*eA*eG) [compound 416427] | 5 |
| 416428 (antisense e[5mC]*eT*eG*eG*eG*dT*dT*dA*d[5mC]*dG*dA*dA*dG*dA*d[5mC]*eT*eG*e[5mC]*eA*eG) [compound 416428] | 11 |
| 416429 (antisense eA*e[5mC]*eG*e[5mC]*e[5mC]*dG*dT*dG*dG*dG*d[5mC]*dT*dT*d[5mC]*d[5mC]*eT*e[5mC]*e[5mC]*eT*eG) [compound 416429] | 47 |
| 416430 (antisense eG*e[5mC]*eA*eG*e[5mC]*dT*d[5mC]*d[5mC]*dT*d[5mC]*d[5mC]*dA*dG*dG*dA*eA*e[5mC]*eG*e[5mC]*eG) [compound 416430] | 52 |
| 416431 (antisense eA*eG*eG*eG*eA*dG*d[5mC]*d[5mC]*d[5mC]*dG*dG*d[5mC]*d[5mC]*dG*d[5mC]*eA*eG*e[5mC]*eT*e[5mC]) [compound 416431] | 25 |
| 416432 (antisense eA*eG*e[5mC]*eA*e[5mC]*dT*dG*d[5mC]*dT*d[5mC]*d[5mC]*dT*d[5mC]*d[5mC]*dT*eT*eG*e[5mC]*eA*e[5mC]) [compound 416432] | 44 |
| 416433 (antisense eA*eG*eA*eA*eA*dT*d[5mC]*d[5mC]*dA*dG*dA*dA*d[5mC]*dA*dG*e[5mC]*eT*eT*e[5mC]*eG) [compound 416433] | 0 |
| 416434 (antisense e[5mC]*eT*eG*eT*eA*dA*dG*dA*dA*dA*dT*d[5mC]*d[5mC]*dA*dG*eA*eA*e[5mC]*eA*eG) [compound 416434] | 0 |
| 416435 (antisense e[5mC]*e[5mC]*e[5mC]*eA*eT*d[5mC]*dA*d[5mC]*dT*dG*dT*dA*dA*dG*dA*eA*eA*eT*e[5mC]*e[5mC]) [compound 416435] | 3 |
| 416436 (antisense eA*e[5mC]*eT*eG*eG*dT*d[5mC]*d[5mC]*d[5mC]*d[5mC]*dA*dT*d[5mC]*dA*d[5mC]*eT*eG*eT*eA*eA) [compound 416436] | 27 |
| 416437 (antisense eA*eG*eG*e[5mC]*eA*d[5mC]*dA*d[5mC]*dT*dG*dG*dT*d[5mC]*d[5mC]*d[5mC]*e[5mC]*eA*eT*e[5mC]*eA) [compound 416437] | 52 |
| 416439 (antisense eG*eT*e[5mC]*e[5mC]*eT*dT*dG*d[5mC]*dA*dG*dG*dA*dG*d[5mC]*d[5mC]*e[5mC]*e[5mC]*e[5mC]*eA*eT) [compound 416439] | 56 |
| 416440 (antisense eG*eG*eA*e[5mC]*eT*dG*dG*dA*dG*d[5mC]*dT*dG*dG*dT*d[5mC]*e[5mC]*eT*eT*eG*e[5mC]) [compound 416440] | 44 |
| 416441 (antisense eA*eG*eA*eT*eA*dT*dA*dG*dG*dA*d[5mC]*dT*dG*dG*dA*eG*e[5mC]*eT*eG*eG) [compound 416441] | 32 |
| 416442 (antisense eA*eG*e[5mC]*eA*eG*dA*dT*dA*dT*dA*dG*dG*dA*d[5mC]*dT*eG*eG*eA*eG*e[5mC]) [compound 416442] | 57 |
| 416443 (antisense eG*eA*eG*eG*e[5mC]*dA*dG*dA*dA*dG*d[5mC]*dA*dG*dA*dT*eA*eT*eA*eG*eG) [compound 416443] | 17 |
| 416444 (antisense eA*e[5mC]*eA*eG*eT*dT*d[5mC]*d[5mC]*dG*dG*d[5mC]*d[5mC]*d[5mC]*dT*d[5mC]*eG*eA*eA*eG*eG) [compound 416444] | 24 |
